Reference: patent US11071744B2, “Prodrug salts” (AEROMICS, INC., priority 2013, dated 2021)
≈ marks a conversion by molar mass, not a printed value. Where a name gives a salt, the structure may show the parent alone. Read-outs that look alike come from different tables or passages of the source.

What was measured:
[1] = Protocol: (§1) 15 g is dissolved in 1.2 L of water with 120 mM of sodium hydroxide and extracted with 500 ml ethyl acetate to remove phenol and non acid impurities. The aqueous layer is acidified with concentrated HCl to pH 1.2 and extracted with ethyl acetate 1 L followed by 600 ml. […] Ethyl acetate is removed by adding 100 ml of methanol and evaporating. […] Sample kept at RT.
physchem = conditions: for final pH of solutions: in water
Protocol: as §1

[2] = test system: mouse water toxicity model; experiment: Mouse water toxicity model, brain volume by MRI
Protocol: Mouse Water Toxicity Model—Brain Volume by Magnetic Resonance Imaging (MRI): MRI is used to measure changes in brain volume in response to water shock, using the water toxicity model. As described for the survival and brain water content studies above, mice are injected, IP, with a water bolus alone or water bolus and test compound at 0.76 mg/kg, and changes in brain volume as detected by MRI are monitored. […] High resolution T2-weighted sagittal scans (resolution=0.1 mm×0.1 mm×0.7 mm) of the mouse head are obtained prior to water injection, 5.67 min post water injection, and then every 5.2 minutes until the animal expires from the water loading. Each scan contains twenty-five 0.7 mm contiguous imaging slices of which 14-15 slices contain a portion of the brain. The cross sectional area of the brain in each imaging slice is measured by manual region-of-interest selection using ImageJ. Brain volumes are then calculated for each scan by summing the individual cross sectional brain areas and multiplying by the slice thickness (0.7 mm).
The brain volume by magnetic resonance imaging experiment is also conducted with phenylbenzamide (0.39 mg/kg) and Compound 4 (0.83 mg/kg).

[3] = test system: mouse water toxicity model; experiment: Mouse water toxicity model, survival curves; conditions: 0.76 mg/kg vs placebo
Protocol: Mouse Water Toxicity Model—Survival Curves: The in vivo efficacies of the compounds are tested using the mouse water toxicity model, where a mouse is injected with water at 20% of its body weight. […] The resulting euvolemic hyponatremia rapidly leads to CE, making this a practical model to test an inhibitor of the CNS aquaporin, AQP4b.
The ability of mice to survive H2O toxicity is determined in three experiments using 10-12 mice each (16-19 weak old male/female). Deionized water is prepared for injection with either 0.39 mg/kg phenylbenzamide (placebo) or 0.76 mg/kg with test compound.

AQP4b [4] = experiment: Aquaporin-Mediated Cell Volume Change Assay, CHO-AQP4b cells; type: cell-based; conditions: 10 μM, AQP4 (both splice variants)
Protocol: (§2) Structure activity relationships (SARs) are determined by assaying analogues of selected hits to guide chemistry for the preparation of new molecules to be tested for improved potency. For this iterative process we use a quantitative kinetic assay—the Aquaporin-Mediated Cell Volume Change Assa—in a 96-well multiplate reader. It detects changes in light scattering by a monolayer of CHO cells expressing the desired AQP as they shrink when exposed to hypertonic solution (300 mOsm→530 mOsm). FIG. 1 depicts the aquaporin-mediated cell volume change assay with AQP4 expressing cells (FIG. 1A) and AQP2 expressing cells (FIG. 1B). The cells expressing aquaporins shrink more rapidly than control cells, due to enhanced water flow, which shrinkage can be inhibited by a compound that inhibits the aquaporin.
(§3) In FIG. 1, aquaporin-expressing cells are shown in the presence of DMSO (triangles) or in the presence of the test compound (here, Compound 3) at 10 μM (squares), along with CHO-CD81 expressing control cells in the presence of DMSO (diamonds). Each curve represents an average of 16 wells in the 96-well plate.
(§4) In FIG. 1A, when the AQP4b cells treated with DMSO are exposed to hypertonic shock, the cells show rapid shrinking, giving a rise in light scattering (increasing relative change in absorbance, Abs/Abs0) followed by a decay as cells detach from the plate. […]

AQP4b [5] = biological target: T1, AQP4b (Homo sapiens, UniProt P55087); experiment: as above; type: cell-based; conditions: read-out: inhibition of rate of shrinking, 10 μM, CHO-AQP4b cells, hypertonic shock
T1 construct: expressed in transfected cells
Protocol: as §2, §3, §4

AQP1 = biological target: T2, AQP1 (Homo sapiens, UniProt P29972); experiment: Aquaporin-Mediated Cell Volume Change Assay, CHO cells expressing AQP1; type: cell-based; conditions: 10 μM
T2 construct: expressed in transfected cells
T2 sequence (P29972 1-269): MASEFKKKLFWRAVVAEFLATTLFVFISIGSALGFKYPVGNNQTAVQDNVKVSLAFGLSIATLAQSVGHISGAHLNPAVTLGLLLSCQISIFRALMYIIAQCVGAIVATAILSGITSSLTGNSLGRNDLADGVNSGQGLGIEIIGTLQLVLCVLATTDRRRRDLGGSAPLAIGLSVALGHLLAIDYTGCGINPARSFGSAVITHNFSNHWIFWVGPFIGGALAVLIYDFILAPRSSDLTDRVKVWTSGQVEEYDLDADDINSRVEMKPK
Protocol: as §2
(§5) The specificity of the compounds is tested against the most closely related of the 13 known aquaporins: AQP1, AQP2, AQP5 and both splice variants of AQP4 (A and B). A stable CHO cell line is created for each of the above aquaporins and the inhibition of water permeability using the Aquaporin-Mediated Cell Volume Change Assay with 10 μM Compound 3 is tested.

AQP2 = biological target: T3, AQP2 (Homo sapiens, UniProt P41181); experiment: Aquaporin-Mediated Cell Volume Change Assay, CHO-AQP2 cells; type: cell-based; conditions: 10 μM
T3 construct: expressed in transfected cells
T3 sequence (P41181 1-271): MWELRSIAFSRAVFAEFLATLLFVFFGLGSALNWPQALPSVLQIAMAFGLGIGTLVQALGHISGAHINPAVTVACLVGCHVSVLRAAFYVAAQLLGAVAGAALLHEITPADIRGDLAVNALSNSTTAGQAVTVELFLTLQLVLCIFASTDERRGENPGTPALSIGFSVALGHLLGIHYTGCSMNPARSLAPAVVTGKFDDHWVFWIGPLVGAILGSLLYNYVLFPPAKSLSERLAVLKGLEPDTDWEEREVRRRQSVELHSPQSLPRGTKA
Protocol: as §2, §3, §4

AQP5 = biological target: T4, AQP5 (Homo sapiens, UniProt P55064); experiment: Aquaporin-Mediated Cell Volume Change Assay, CHO cells expressing AQP5; type: cell-based; conditions: 10 μM
T4 construct: expressed in transfected cells
Protocol: as §2, §5

AQP4 = biological target: T5, AQP4 (Homo sapiens, UniProt P55087); experiment: AQP Inhibition Cell-Based Assay (Table 1)
T5 construct: expressed in transfected cells; host or cells: CHO

purified AQP4b = purified AQP4b (Homo sapiens, UniProt P55087); experiment: Hummel-Dryer style binding assay with [3H]-Compound 4
Protocol: To support the mechanism of action by which phenylbenzamides directly block AQP4, we perform in vitro binding studies using purified AQP4b and Compound 4 radiolabeled with ^3H. Using a Hummel-Dryer style assay, a gel filtration column is equilibratrated with buffer containing detergent, to maintain solubility of AQP4b, and 1 μM [^3H]-Compound 4. AQP4b is diluted to 250 μM in this column buffer and incubated at RT for 30 min. The sample is then applied to the column, fractions collected and the presence of [^3H]-Compound 4 detected by liquid scintillation counting. […] The rise in [^3H]-Compound 4 from a baseline value of 1 μM represents binding to each of these proteins.

[6] = test system: mouse middle cerebral artery occlusion (MCAo) model; experiment: MCAo stroke model, cerebral edema (hemispheric brain volume by MRI)
Protocol: (§6) To mimic this injury in mice, an intraluminal monofilament model of middle cerebral artery occlusion (MCAo) is used. Occlusion is achieved by inserting a surgical filament into the external carotid artery (ECA) and threading it forward into the internal carotid artery (ICA) until the tip blocks the origin of the MCA. […] This technique is used to study a temporary occlusion in which the MCA is blocked for one hour. The filament is then removed allowing reperfusion to occur for 24 hours before the animals brain is imaged using T2-weighted scans in a 9.4T Bruker MRI scanner at the Case Center for Imaging Research (FIG. 10).
Cerebral Edema—Mice are given saline or treated with Compound 5 by multi-dosing at 5 mg/kg i.p. every three hours (n=8 per treatment). […] Ipsilateral and contralateral hemispheric volume is measured from the T2-weighted MR images of mice 24 hours post-icus. Relative change in hemispheric volume is calculated as a percent of the difference between ipsilateral brain volume (Vi) and contralateral brain volume (Vc) relative to the contralateral brain volume (Percent Change in Hemispheric Brain Volume=((Vi−Vc)/Vc)×100%.

[7] = test system: mouse middle cerebral artery occlusion (MCAo) model; experiment: MCAo stroke model, survival; type: in vivo; conditions: at 24 h; 2 mg/kg i.p. loading dose plus 1 mg/ml at 8 μl/h pump, vs saline
Protocol: as §6
Survival—Mice are treated with Compound 5 using a 2 mg/kg i.p. loading dose and 1 mg/ml at 8 μl/h maintenance dose (delivered by an i.p. osmotic pump) of Compound 5, or given saline (controls; n=17) using an identical approach.

[8] = test system: mouse middle cerebral artery occlusion (MCAo) model; experiment: MCAo stroke model, neurological outcome; type: in vivo
Protocol: as §6
Neurological Outcome—In the same experiment as above, animals are scored for neurological outcome on a simple 5 point scale described in Manley, G. T. et al., Aquaporin-4 Deletion in Mice Reduces Brain Edema After Acute Water Intoxication and Ischemic Stroke, Nature Medicine, 6, 159-163 (2000).

[9] = mice injected IP
Protocol: Measurements are taken at 15 minutes and 24 hours after a 10 mg/kg i.p. loading dose and 1 mg/ml at 8 μl/h maintenance dose (delivered by an Alzet i.p. osmotic pump, Durect Corp., Cupertino, Calif.) of 2-{[3,5-bis(trifluoromethyl)phenyl]carbamoyl}-4-chlorophenyl phosphate bis ethanolamine salt (n=5 mice/time point, mean±SEM) (FIG. 9). […] Samples are analyzed by tandem LC-MS/MS using C18 reversed-phase chromatography and mass analysis with a triple-quadrapole mass spectrometer.

[10] = Bioconversion of prodrug salt to Compound 1 in mouse plasma in vitro; type: in vitro ADME; conditions: 20° C.
[11] = solid state, freeze dried salts

T5 sequence (P55087 23-323, species assumed): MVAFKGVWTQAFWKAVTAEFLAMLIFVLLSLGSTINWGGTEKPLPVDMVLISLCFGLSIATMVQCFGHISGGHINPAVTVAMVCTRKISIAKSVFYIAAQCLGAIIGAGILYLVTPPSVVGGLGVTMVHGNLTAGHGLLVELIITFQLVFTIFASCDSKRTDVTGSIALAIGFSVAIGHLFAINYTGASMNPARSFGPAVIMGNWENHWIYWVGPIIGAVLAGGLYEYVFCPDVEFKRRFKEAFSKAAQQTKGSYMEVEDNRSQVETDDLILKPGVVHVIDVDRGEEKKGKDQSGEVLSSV
T4 sequence (P55064 whole entry, species assumed): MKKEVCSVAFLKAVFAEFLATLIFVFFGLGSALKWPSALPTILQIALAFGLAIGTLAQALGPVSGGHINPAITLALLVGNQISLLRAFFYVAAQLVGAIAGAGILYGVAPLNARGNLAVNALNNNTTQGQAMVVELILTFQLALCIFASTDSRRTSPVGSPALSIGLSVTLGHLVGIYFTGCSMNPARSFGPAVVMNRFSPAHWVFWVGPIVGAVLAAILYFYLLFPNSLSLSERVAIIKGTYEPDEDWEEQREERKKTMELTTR
Chain of purified AQP4b (P55087 23-323): as the sequence (P55087 23-323, species assumed) above
T1 sequence (P55087 23-323 limits assumed): as the sequence (P55087 23-323, species assumed) above

## O=C(Nc1cc(C(F)(F)F)cc(C(F)(F)F)c1)c1cc(Cl)ccc1OP(=O)(O)O
[1]
  stability at RT: stable at RT for a week or more
physchem; pH 7, aqueous buffer
  solubility: 5 mg/mL (≈ 10.8 mM)

## O=C(Nc1cc(C(F)(F)F)cc(C(F)(F)F)c1)c1cc(Cl)ccc1O [Compound 1, N-(3,5-bis(trifluoromethyl)phenyl)-5-chloro-2-hydroxybenzamide]
[2]; 0.76 mg/kg
  extent of CE during the period of observation: reduced
[2]; 0.76 mg/kg, from 0.081 to 0.032 min^−1
  reduction of rate of CE development: 2.5 fold
[2]; mouse water toxicity model, 0.76 mg/kg IP, LC-MS/MS
  plasma levels: 0.03 to 0.06 µg
physchem; water
  solubility in water: 0.0038 mg/mL (≈ 0.0099 mM)
[3]
  improvement of percent survival: 3.2 fold
  improvement of time to 50% survival: roughly 52 min

## O=C(Nc1cc(Cl)cc(Cl)c1)c1cc(Cl)ccc1O [Compound 3, 5-chloro-N-(3,5-dichlorophenyl)-2-hydroxybenzamide]
AQP4b [4]
  inhibition of water permeability: inhibits
AQP4b [5]
  inhibition at 10 µM: 55%
AQP1
  inhibition of water permeability: poorly inhibits
AQP2
  inhibition of water permeability: inhibits
AQP5
  inhibition of water permeability: poorly inhibits

## O=C(Nc1cc(C(F)(F)F)cc(C(F)(F)F)c1)c1cc(C(F)(F)F)ccc1O [Compound 4, N-(3,5-bis(trifluoromethyl)phenyl)-2-hydroxy-5-(trifluoromethyl)benzamide]
AQP4
  AQP Inhibition Cell-Based Assay (%): 38.9%
Purified AQP4b
  binding to solubilized AQP4b: relatively weak binding

## O=C(Nc1cc(C(F)(F)F)cc(C(F)(F)F)c1)c1cc(Cl)ccc1OP(=O)([O-])[O-].[Na+].[Na+] [Compound 5]
[1]; [11]
  hydrolysis in the solid state: about 1 % per day
[1]; solution, RT, longer term
  longer term hydrolysis in solution: about 1 % per day
physchem
  solubility in water: 1 mg/mL
  final pH of solutions: ~9.5
physchem; water
  solubility: ~10 mg/mL
[6]; 24 hours after MCAo, 5 mg/kg i.p. every three hours, ±SEM, control 13.4%
  relative change in ipsilateral hemispheric brain volume: 4.2±1.7%
[6]; vs saline control
  reduction in brain swelling after MCAo: 3.2 fold
[7]
  improvement in overall survival: 29.4%
[8]; 5 point scale, control 2.77±0.66
  average neurological score: 0.88±0.31
[8]; mouse, in vivo
  progression of neurological state: did not progress into a state of severe paralysis or death

## O=C(Nc1ccccc1)c1ccccc1 [Phenylbenzamide, reference compound]
AQP4
  AQP Inhibition Cell-Based Assay (%): 4.5%

## O=C(Nc1cc(C(F)(F)F)cc(C(F)(F)F)c1)c1cc(Cl)ccc1OP(=O)(O)O [bis ethanolamine salt]
[9]
  bioavailability and conversion to Compound 1: good bioavailability and near-complete conversion
  prodrug salt in plasma samples: undetectable
[1]
  hydrolysis in the solid state: about 1 % per day
  longer term hydrolysis in solution: about 1 % per day
[10]
  time to render prodrug undetectable: Less than 5 minutes
physchem; water
  solubility: ~10 mg/mL

## NCCO.O=C(Nc1cc(C(F)(F)F)cc(C(F)(F)F)c1)c1cc(Cl)ccc1OP(=O)(O)O [mono ethanolamine salt]
[1]; after 5 days at RT
  hydrolysis: about 1%
physchem; water
  solubility: ~5 mg/mL

## O=C(Nc1cc(C(F)(F)F)cc(C(F)(F)F)c1)c1cc(Cl)ccc1OP(=O)([O-])O.[Na+] [mono sodium salt]
[1]; [11]
  hydrolysis in the solid state: about 1 % per day
[1]; solution, RT, longer term
  longer term hydrolysis in solution: about 1 % per day
physchem
  final pH of solutions: ~8.5
physchem; water
  solubility: ~5 mg/mL
